Source: ChEMBL document CHEMBL1148729, “Specific plant terpenoids and lignoids possess potent antiviral activities against severe acute respiratory syndrome coronavirus” (J Med Chem, 2007)
pEC50, pIC50, pKi: −log10 of the molar value.

Experiments:
SARS-CoV [1] = test: Inhibition of SARS coronavirus-induced cytopathogenicity in Vero E6 cells at 20 uM; format: functional; conditions: Severe acute respiratory syndrome-related coronavirus
SARS-CoV [2] = test: Inhibition of SARS coronavirus-induced cytopathogenicity in Vero E6 cells at 10 uM; format: functional; conditions: Severe acute respiratory syndrome-related coronavirus
[3] = Cytotoxicity against Vero E6 cells by MTT assay; format: cell-based; conditions: chlorocebus sabaeus
[4] = Selectivity index, Ratio of CC50 for Vero E6 cells to EC50 for SARS coronavirus; format: functional
SARS-CoV [5] = test: Inhibition of SARS virus-induced cytopathogenicity in Vero E6 cells at 3.3 uM; format: functional; conditions: Severe acute respiratory syndrome-related coronavirus
SARS-CoV [6] = test: Antiviral activity against SARS coronavirus in Vero E6 cells assessed as inhibition of viral replication by ELISA; format: functional, organism-based; conditions: Severe acute respiratory syndrome-related coronavirus
SARS-CoV [7] = test: Inhibition of SARS virus-induced cytopathogenicity in Vero E6 cells at 1 uM; format: functional; conditions: Severe acute respiratory syndrome-related coronavirus
Replicase polyprotein 1a = Replicase polyprotein 1a (Severe acute respiratory syndrome-related coronavirus, UniProt P0C6U8); test: Inhibition of SARS coronavirus 3CL protease

| SMILES | inhibition at 20 µM (SARS-CoV [1]) | inhibition at 10 µM (SARS-CoV [2]) | CC50 [3] | Ratio CC50/EC50 [4] | inhibition at 3.3 µM (SARS-CoV [5]) | pEC50 (SARS-CoV [6]) | inhibition at 1 µM (SARS-CoV [7]) | pIC50 (Replicase polyprotein 1a) | pKi (Replicase polyprotein 1a) |
| --- | --- | --- | --- | --- | --- | --- | --- | --- | --- |
| COc1cc(C2c3cc(OC(=O)c4ccccc4)c(OC)cc3C[C@@H](CO)[C@@H]2CO)ccc1OC(=O)c1ccccc1 (stereo not given in full) | < 25% | < 25% |  |  |  |  |  |  |  |
| CC(=O)Oc1cc2c(cc1C(C)C)C=C[C@H]1C(C)(C)[C@@H](OC(C)=O)CC[C@]21C | < 25% | 25% | 303 µM | 193 | 25% | 5.80 |  |  |  |
| CC(C)C1=C(O)C(=O)C2=C(C=C[C@H]3C(C)(C)CCC[C@]23C)C1=O | < 25% | 25% | 89.7 µM | 16.2 |  | 5.26 |  |  |  |
| CC(C)C1=C[C@]2(O)CC[C@H]3C(C)(C)CCC[C@]3(C)C2=CC1=O | < 25% | < 25% | > 750 µM | >510 | 50% | 5.83 |  |  |  |
| COc1c(C(C)C)cc2c(c1O)[C@@]1(C)CCCC(C)(C)[C@@H]1C[C@@H]2O | < 25% | < 25% | 127 µM | 111 |  | 5.94 |  |  |  |
| C[C@@H]1CC[C@H]2[C@@](C)(CO)[C@H]3C[C@@]12CC[C@@]3(C)O | < 25% | 25% | > 750 µM |  | 50% | < 5.00 |  |  |  |
| CC(C)c1ccc2c(c1)C(=O)C[C@H]1C(C)(C)CCC[C@]21C | < 25% | < 25% | 305 µM | 76.3 |  | 5.40 |  |  |  |
| CC1=C[C@@H]2[C@@H](CC1)[C@](C)(O)CC[C@H]2C(C)C | < 25% | 25% | 76.8 µM | 17.3 | 25% | 5.35 | 50% |  |  |
| C=C(C)[C@@H]1CC[C@]2(C(=O)O)CC[C@]3(C)[C@H](CC[C@@H]4[C@@]5(C)CC[C@H](O)C(C)(C)[C@@H]5CC[C@]43C)[C@@H]12 [BETULINIC ACID] | < 25% | 25% | 150 µM | <15 | 50% | < 5.00 |  | 5.00 | 5.09 |
| C=C(C)[C@@H]1CC[C@]2(C(=O)O)CC[C@]3(C)[C@H](CC[C@@H]4[C@@]5(C)CCC(=O)C(C)(C)[C@@H]5CC[C@]43C)[C@@H]12 [BETUNOLIC ACID] | < 25% | < 25% | 112 µM | 180 |  | 6.20 |  | < 4.00 |  |
| C=C[C@@]1(C)CC(=O)[C@]2(O)[C@@]3(C)[C@@H](O)CCC(C)(C)[C@@H]3[C@H](O)[C@H](OC(C)=O)[C@@]2(C)O1 [COLFORSIN] | < 25% | 25% | 674 µM | 89.8 | 50% | 5.12 |  |  |  |
| COc1c(C(C)C)cc2c(c1O)[C@@]1(C)CCCC(C)(C)[C@@H]1CC2=O [CRYPTOJAPONOL] | < 25% | < 25% | 78.5 µM | <7.9 |  | < 5.00 |  |  |  |
| COc1cc(/C=C/C(=O)CC(=O)/C=C/c2ccc(O)c(OC)c2)ccc1O [CURCUMIN] | 25% | 50% | > 250 µM |  |  | < 5.00 |  | 4.40 |  |
| CC(C)c1cc2c(cc1O)[C@@]1(C)CCCC(C)(C)[C@@H]1CC2 [FERRUGINOL] | < 25% | < 25% | 80.4 µM | 58 | 25% | 5.86 |  |  |  |
| O=C1OC[C@H](Cc2ccc3c(c2)OCO3)[C@H]1Cc1ccc2c(c1)OCO2 [HINOKININ] | < 25% | 25% | > 750 µM |  | 25% | < 5.00 | 50% | < 4.00 |  |
| C=CCc1ccc(O)c(-c2ccc(O)c(CC=C)c2)c1 [HONOKIOL] | < 25% | < 25% | 88.9 µM | 13.7 | 25% | 5.19 |  |  |  |
| C=CCc1ccc(O)c(-c2cc(CC=C)ccc2O)c1 [MAGNOLOL] | < 25% | < 25% | 68.3 µM | 18 | 50% | 5.42 |  |  |  |
| O=C(Nc1ccc([N+](=O)[O-])cc1Cl)c1cc(Cl)ccc1O [NICLOSAMIDE] | < 25% | 25% | 22.1 µM | >221 | 25% | > 7.00 | 50% | 4.40 |  |
| C=C1CC[C@@H]2[C@](C)(CCC[C@]2(C)C(=O)O)[C@H]1CCC1=CCOC1=O [PINUSOLIDIC ACID] | < 25% | < 25% | > 750 µM | >159 |  | 5.33 |  |  |  |
| O=C1OC[C@H](Cc2ccc3c(c2)OCO3)/C1=C\c1ccc2c(c1)OCO2 [SAVININ] | < 25% | < 25% | > 750 µM | >667 |  | 5.95 |  | 4.60 | 5.04 |
| CC(C)c1cc2c(cc1O)[C@@]1(C)CCCC(C)(C)[C@@H]1CC2=O [SUGIOL] | < 25% | < 25% |  |  |  |  |  |  |  |
| CC(C)[C@@H]1NC(=O)[C@H](C)OC(=O)[C@@H](C(C)C)NC(=O)[C@@H](C(C)C)OC(=O)[C@H](C(C)C)NC(=O)[C@H](C)OC(=O)[C@@H](C(C)C)NC(=O)[C@@H](C(C)C)OC(=O)[C@H](C(C)C)NC(=O)[C@H](C)OC(=O)[C@@H](C(C)C)NC(=O)[C@@H](C(C)C)OC1=O [VALINOMYCIN] | < 25% | 25% | 67.5 µM | 41.4 | 25% | 5.79 | 50% |  |  |
